Test results taken from PubChem BioAssay AID179 (DTP/NCI, 2004).
Where “and” joins values, the source holds several entries; their conditions need not be identical. Identical values can stand only once. Calls of active or inactive are those of the source.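 Rule for the calls: active = compounds giving half or more protection of infected cells from virus-caused growth loss, again on retest; inactive = the rest.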 *1 amine or outer side, *2 acyl side, *3 side chain or, on linkers, in order; H or OH if unused. Where a SMILES comes first, the peptide text is derived from it. [ ]: non-standard residue; d: D form. The star is where a group is joined. X7 = NC(N)=NCC(O)CC(N[*:1])C(=O)[*:2]; Orn = NCCC[CH](N)C(=O)O; Cbz = O=C(OCc1ccccc1)*; Boc = CC(C)(C)OC(=O)*; OBn = c1ccc(CO*)cc1

System: CEM cells HIV-1 protection, formazan growth assay
Assay: NCI AIDS Antiviral Assay
Conditions: for IC50: measured here: growth of uninfected CEM cells
In short: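 CEM (human) cells, HIV-1 infected vs uninfected, 5-point dosing, formazan growth read-out. Retest threshold 50% protection.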

N#C/C(=C\c1ccccc1Cl)C(=O)c1ccccc1
EC50: > 132 µM
IC50: 13.2 µM

CCC1CCN=C(NS(=O)(=O)c2cc(C)c(Cl)cc2S)N1 (stereo not given)
EC50: > 200 µM
IC50: 39.8 µM

COc1ccc2nc3c([N+](=O)[O-])ccc(NCCN(C)C)c3c(NCCN(C)C)c2c1
EC50: > 200 µM
IC50: 1.07 µM

COc1ccc(/C=C2\CN(C)C/C(=C\c3ccc(OC)c(OC)c3OC)C2=O)c(OC)c1OC
EC50: > 2 µM
IC50: 0.331 µM

S=C(SSSSC(=S)N1CCCCC1)N1CCCCC1
EC50: > 10.5 µM
IC50: 2.14 µM

CC1=NN(c2ccccc2)C(=O)C1C(=O)C(=O)Nc1ccc(C)cc1C (stereo not given)
outcome: inactive
IC50: 102 µM

CC(C)C1OCC(CO)CO1 (stereo not given)
EC50: > 200 µM
IC50: > 200 µM

O=C1CCC2(c3ccc(Cl)cc3)Nc3cc(Cl)ccc3N12 (stereo not given)
outcome: inactive

COc1ccc2nc(CC(C)C)c3c(c2c1)-c1ccccc1C3=O
EC50: > 11.2 µM
IC50: > 11.2 µM

O=P(O)(O)CN1CCNCCN(CP(=O)(O)O)CCNCC1
EC50: > 200 µM
IC50: 10 µM

COc1cc(NCCN)c2ncsc2c1
EC50: > 200 µM
IC50: 85.1 µM

COc1cc2c(c(OC)c1O)C(=O)CC(c1ccc(O)cc1)O2 (stereo not given)
EC50: > 200 µM
IC50: 21.9 µM

FC(F)(F)C(F)(F)/C(=N/Nc1ccccc1)SS/C(=N\Nc1ccccc1)C(F)(F)C(F)(F)F
EC50: > 200 µM
IC50: 3.16 µM

CC(C)(C)OC(=O)NC1CCCCC1NC(=O)C(=O)NC1CCCCC1NC(=O)OC(C)(C)C (stereo not given)
EC50: > 100 µM
IC50: > 100 µM

COC(=O)C(CCCCNC(=O)OCc1ccccc1)NC(=O)C(CCC(=O)OCc1ccccc1)NC(=O)OC(C)(C)C (stereo not given) (Boc-Glu(OBn)-Lys(Cbz)-OMe; configuration not given here)
EC50: > 200 µM
IC50: > 200 µM

N#CC1C(=O)NC(=O)C1=O (stereo not given)
EC50: > 1820 µM
IC50: > 1820 µM

CCC1=CC2CC(C(=O)OC)C1(N(C)C)C2=O (stereo not given)
outcome: inactive

COC(=O)[C@@H]1CSC(=S)N1C(=O)C[C@@H]1CC=CC[C@@H]1CC(=O)Sc1ccccc1
outcome: inactive

O=C1OC2(c3ccccc3Oc3ccccc32)c2ccccc21
outcome: inactive

O=C(O)c1ccccc1-c1c2cc(Br)c(=O)c(Br)c-2oc2c(Br)c(O)c(Br)cc12
EC50: > 200 µM
IC50: 21.9 µM and 35.5 µM

NC(=O)CC(NC(=O)OCc1ccccc1)C(=O)NC(Cc1ccccc1)C(=O)NC(Cc1ccccc1)NC(=O)C(Cc1c[nH]c2ccccc12)C(=O)O (stereo not given)
EC50: > 50.1 µM
IC50: > 50.1 µM

CC(=O)N1CC(C)(C)c2c1cc(C)c(O)c2C
EC50: > 200 µM
IC50: 132 µM

Cc1nc(N(CCO)CCO)c2sc(=S)n(-c3ccccc3)c2n1
EC50: > 10.5 µM
IC50: > 10.5 µM

Cc1ccc2c(c1)c1ccc3c(c1n2C)C(=O)C=CC3=O
EC50: > 100 µM
IC50: 2.45 µM

COc1ccc(C2CC(=O)c3c(OC(C)=O)cc(OC(C)=O)cc3O2)cc1OC(C)=O (stereo not given)
EC50: > 200 µM
IC50: 7.76 µM

Cc1ccc([P+](Cc2ccc([N+](=O)[O-])cc2)(c2ccc(C)cc2)c2ccc(C)cc2)cc1
EC50: > 200 µM
IC50: 3.63 µM

CN1c2ccccc2Oc2ccc3ccccc3c21
EC50: > 200 µM
IC50: 135 µM

NC(CSSCC(N)=NC1CCCCC1)=NC1CCCCC1
EC50: > 200 µM
IC50: 95.5 µM

Clc1cccc(N2CCN(CCN3CCc4c([nH]c5ccccc45)C3c3cccnc3)CC2)c1 (stereo not given)
EC50: > 2.19 µM
IC50: > 2.19 µM

C=CCN(CCN(CC=C)S(=O)(=O)c1ccc(C)cc1)S(=O)(=O)c1ccc(C)cc1
EC50: > 22.4 µM
IC50: > 22.4 µM

CC(=O)O[C@H]1[C@H](OC(=O)CC(C)(O)CC(=O)O)C[C@]2(C)C3=C(CCC2C1(C)C)[C@]1(C)CC[C@H]([C@H]2CC[C@H](C(C)(C)O)OC2O)[C@@]1(C)[C@@H](O)C3 (stereo not given in full)
EC50: > 100 µM
IC50: 49 µM

Cc1ccc(NC(=O)c2c(N)c(C#N)c3n2CCC3)cc1
EC50: > 200 µM
IC50: > 200 µM

Nc1cc(N)c(N=Nc2ccc(/C=C\c3ccc(N=Nc4c(N)cc(N)cc4C(=O)O)cc3S(=O)(=O)O)c(S(=O)(=O)O)c2)c(C(=O)O)c1.[Zn+2]
EC50: > 30.2 µM
IC50: 23.4 µM

O=c1[nH]nc(-c2ccc([N+](=O)[O-])cc2)n1/N=C/c1ccc([N+](=O)[O-])cc1
EC50: > 200 µM
IC50: 132 µM

N#Cc1c(Cl)c2ccccc2n2c1nc1ccccc12
EC50: > 151 µM
IC50: 8.32 µM

CCCCCCCCCCCc1c2[nH]c3cc(C)ccc3oc2cc2[nH]c3cc(C)ccc3oc12
EC50: > 2 µM
IC50: > 2 µM

COc1cc(OC)c(OC)cc1/C=C1\C=Cc2ccccc21
EC50: > 17.8 µM
IC50: > 17.8 µM

O=c1cc[nH]c(=O)n1C1CCC(CO)O1 (stereo not given)
EC50: > 200 µM
IC50: > 200 µM

CC(C)(C)OC(=O)NC(Cc1ccc(OCc2ccccc2)cn1)C(N)=O (stereo not given)
EC50: > 200 µM
IC50: > 100 µM

COc1ccc(C(c2c(O)c3ccccc3oc2=O)N2CCOCC2)c(OC)c1 (stereo not given)
EC50: > 200 µM
IC50: 91.2 µM

CC(O)C(NC(=O)C(CCCN)NC(=O)C(CC(O)CN=C(N)N)NC(=O)C(N)CCCN=C(N)N)C(=O)NC(CCCN)C(=O)NC(CC(O)CN=C(N)N)C(=O)NC(Cc1ccc(O)cc1)C(=O)O (stereo not given) (H-R[X7][Orn]T[Orn][X7]Y-OH; configuration not given here)
EC50: > 245 µM
IC50: 174 µM

NC(=O)N/N=C1\CCc2ccccc2C1
EC50: > 93.3 µM
IC50: > 93.3 µM
